Measurements reported in ChEMBL document CHEMBL1681651, “A broad spectrum anticancer nucleoside with selective toxicity against human colon cells in vitro” (2011).

Assays:
Type in all cases: functional
HT-29 = assay: Growth inhibition of human HT-29 cells after 48 hrs by […] growth inhibition assay; settings: HT-29, 48 h
CAKI-1 = assay: Growth inhibition of human Caki1 cells assessed as cell growth at 1 mM after 48 hrs by SRB assay; settings: CAKI-1, 48 h, read-out: Activity
HL-60(TB) = assay: Growth inhibition of human HL-60(TB) cells assessed as cell growth at 10 uM after 48 hrs by SRB assay; settings: HL-60, 48 h, read-out: Activity
SF-539 [1] = assay: Growth inhibition of human SF539 cells assessed as cell growth at 0.1 uM after 48 hrs by SRB assay; settings: SF-539, 48 h, read-out: Activity
HOP-92 = assay: Growth inhibition of human HOP92 cells assessed as cell growth at 0.1 uM after 48 hrs by SRB assay; settings: HOP-92, 48 h, read-out: Activity
MDA-MB-231 [2] = assay: Growth inhibition of human MDA-MB-231 cells assessed as cell growth at 1 mM after 48 hrs by SRB assay; settings: MDA-MB-231, 48 h, read-out: Activity
U-251 = assay: Growth inhibition of human U251 cells assessed as cell growth at 0.1 uM after 48 hrs by SRB assay; settings: U-251, 48 h, read-out: Activity
SK-OV-3 [3] = assay: Growth inhibition of human SKOV3 cells assessed as cell growth at 10 uM after 48 hrs by SRB assay; settings: SK-OV-3, 48 h, read-out: Activity
[4] = Growth inhibition of human […] cells assessed as cell growth at 0.1 uM after 48 hrs by SRB assay; settings: read-out: Activity
BT-549 [5] = assay: Growth inhibition of human BT549 cells assessed as cell growth at 0.1 uM after 48 hrs by SRB assay; settings: BT-549, 48 h, read-out: Activity
NCI-H23 [6] = assay: Growth inhibition of human NCI-H23 cells assessed as cell growth at 0.1 uM after 48 hrs by SRB assay; settings: NCI-H23, 48 h, read-out: Activity
BT-549 [7] = assay: Growth inhibition of human BT549 cells assessed as cell growth at 100 uM after 48 hrs by SRB assay; settings: BT-549, 48 h, read-out: Activity
NCI/ADR-RES = assay: Growth inhibition of human NCI/ADR-RES cells assessed as cell growth at 1 uM after 48 hrs by SRB assay; settings: read-out: Activity
MDA-MB-435 [8] = assay: Growth inhibition of human MDA-MB-435 cells assessed as cell growth at 0.1 uM after 48 hrs by SRB assay; settings: MDA-MB-435, 48 h, read-out: Activity
T47D = assay: Growth inhibition of human T47D cells assessed as cell growth at 10 uM after 48 hrs by SRB assay; settings: read-out: Activity
MDA-MB-435 [9] = assay: Growth inhibition of human MDA-MB-435 cells assessed as cell growth at 10 uM after 48 hrs by SRB assay; settings: MDA-MB-435, 48 h, read-out: Activity
MCF7 = assay: Growth inhibition of human MCF7 cells assessed as cell growth at 0.1 uM after 48 hrs by SRB assay; settings: MCF7, 48 h, read-out: Activity
MDA-MB-231 [10] = assay: Growth inhibition of human MDA-MB-231 cells after 48 hrs by […] growth inhibition assay; settings: MDA-MB-231, 48 h
NCI-H23 [11] = assay: Growth inhibition of human NCI-H23 cells assessed as cell growth at 1 mM after 48 hrs by SRB assay; settings: NCI-H23, 48 h, read-out: Activity
M14 = assay: Growth inhibition of human M14 cells after 48 hrs by […] growth inhibition assay; settings: M14, 48 h
SK-OV-3 [12] = assay: Growth inhibition of human SKOV3 cells assessed as cell growth at 100 uM after 48 hrs by SRB assay; settings: SK-OV-3, 48 h, read-out: Activity
CCRF-CEM = assay: Growth inhibition of human CCRF-CEM cells assessed as cell growth at 1 uM after 48 hrs by SRB assay; settings: read-out: Activity
SN12C = assay: Growth inhibition of human SN12C cells assessed as cell growth at 100 uM after 48 hrs by SRB assay; settings: read-out: Activity
ACHN = assay: Growth inhibition of human ACHN cells assessed as cell growth at 100 uM after 48 hrs by SRB assay; settings: read-out: Activity
SNB-75 = assay: Growth inhibition of human SNB75 cells after 48 hrs by […] growth inhibition assay; settings: SNB-75, 48 h
UO-31 = assay: Growth inhibition of human UO31 cells after 48 hrs by […] growth inhibition assay; settings: UO-31, 48 h
MDA-MB-231 [13] = assay: Growth inhibition of human MDA-MB-231 cells assessed as cell growth at 0.1 uM after 48 hrs by SRB assay; settings: MDA-MB-231, 48 h, read-out: Activity
MDA-MB-435 [14] = assay: Growth inhibition of human MDA-MB-435 cells assessed as cell growth at 1 uM after 48 hrs by SRB assay; settings: MDA-MB-435, 48 h, read-out: Activity
OVCAR-8 = assay: Growth inhibition of human OVCAR8 cells after 48 hrs by […] growth inhibition assay; settings: OVCAR-8, 48 h
SF-539 [15] = assay: Growth inhibition of human SF539 cells after 48 hrs by […] growth inhibition assay; settings: SF-539, 48 h
NCI-H322M = assay: Growth inhibition of human NCI-H322M cells after 48 hrs by […] growth inhibition assay
OVCAR-4 = assay: Growth inhibition of human OVCAR4 cells assessed as cell growth at 0.1 uM after 48 hrs by SRB assay; settings: OVCAR-4, 48 h, read-out: Activity
[16] = read-out: LC50 (the source's name)
[17] = read-out: pLC50 (the source's name) (converted)

Structure (SMILES): CNC(=O)NC[C@H]1O[C@@H](n2cnc3c(NC(=O)Nc4ccccc4)ncnc32)[C@H](O[Si](C)(C)C(C)(C)C)[C@@H]1CC(=O)N(C)OC
- GI50 (HT-29; read-out: GI50): 5.37 µM
- CC50 (HT-29; [16]): > 100 µM
- TGI (HT-29; read-out: TGI): > 100 µM
- GI50 (HT-29; read-out: pGI50 (converted)): 5.37 µM
- CC50 (HT-29; [17]): > 100 µM
- TGI (HT-29; read-out: pTGI (converted)): > 100 µM
- growth at 1000 µM (CAKI-1): 47%
- growth at 10 µM (HL-60(TB)): 84%
- growth at 0.1 µM (SF-539 [1]): 96%
- growth at 0.1 µM (HOP-92): 80%
- growth at 1000 µM (MDA-MB-231 [2]): 5%
- growth at 0.1 µM (U-251): 97%
- growth at 10 µM (SK-OV-3 [3]): 95%
- growth at 0.1 µM [4]: 80%
- growth at 0.1 µM (BT-549 [5]): 95%
- growth at 0.1 µM (NCI-H23 [6]): 106%
- growth at 100 µM (BT-549 [7]): 70%
- growth at 1 µM (NCI/ADR-RES): 109%
- growth at 0.1 µM (MDA-MB-435 [8]): 100%
- growth at 10 µM (T47D): 84%
- growth at 10 µM (MDA-MB-435 [9]): 98%
- growth at 0.1 µM (MCF7): 91%
- GI50 (MDA-MB-231 [10]; read-out: GI50): 12.3 µM
- CC50 (MDA-MB-231 [10]; [16]): > 100 µM
- TGI (MDA-MB-231 [10]; read-out: TGI): > 100 µM
- GI50 (MDA-MB-231 [10]; read-out: pGI50 (converted)): 12.3 µM
- CC50 (MDA-MB-231 [10]; [17]): > 100 µM
- TGI (MDA-MB-231 [10]; read-out: pTGI (converted)): > 100 µM
- growth at 1000 µM (NCI-H23 [11]): 43%
- GI50 (M14; read-out: GI50): 15.2 µM
- CC50 (M14; [16]): > 100 µM
- TGI (M14; read-out: TGI): > 100 µM
- GI50 (M14; read-out: pGI50 (converted)): 15.1 µM
- CC50 (M14; [17]): > 100 µM
- TGI (M14; read-out: pTGI (converted)): > 100 µM
- growth at 100 µM (SK-OV-3 [12]): 82%
- growth at 1 µM (CCRF-CEM): 100%
- growth at 100 µM (SN12C): 66%
- growth at 100 µM (ACHN): 55%
- GI50 (SNB-75; read-out: GI50): 12.7 µM
- CC50 (SNB-75; [16]): > 100 µM
- TGI (SNB-75; read-out: TGI): > 100 µM
- GI50 (SNB-75; read-out: pGI50 (converted)): 12.9 µM
- CC50 (SNB-75; [17]): > 100 µM
- TGI (SNB-75; read-out: pTGI (converted)): > 100 µM
- GI50 (UO-31; read-out: GI50): 7.79 µM
- CC50 (UO-31; [16]): > 100 µM
- TGI (UO-31; read-out: TGI): > 100 µM
- GI50 (UO-31; read-out: pGI50 (converted)): 7.76 µM
- CC50 (UO-31; [17]): > 100 µM
- TGI (UO-31; read-out: pTGI (converted)): > 100 µM
- growth at 0.1 µM (MDA-MB-231 [13]): 97%
- growth at 1 µM (MDA-MB-435 [14]): 97%
- GI50 (OVCAR-8; read-out: GI50): 9.02 µM
- CC50 (OVCAR-8; [16]): > 100 µM
- TGI (OVCAR-8; read-out: TGI): > 100 µM
- GI50 (OVCAR-8; read-out: pGI50 (converted)): 9.12 µM
- CC50 (OVCAR-8; [17]): > 100 µM
- TGI (OVCAR-8; read-out: pTGI (converted)): > 100 µM
- GI50 (SF-539 [15]; read-out: GI50): 22.3 µM
- CC50 (SF-539 [15]; [16]): > 100 µM
- TGI (SF-539 [15]; read-out: TGI): > 100 µM
- GI50 (SF-539 [15]; read-out: pGI50 (converted)): 22.4 µM
- CC50 (SF-539 [15]; [17]): > 100 µM
- TGI (SF-539 [15]; read-out: pTGI (converted)): > 100 µM
- GI50 (NCI-H322M; read-out: GI50): > 100 µM
- CC50 (NCI-H322M; [16]): > 100 µM
- TGI (NCI-H322M; read-out: TGI): > 100 µM
- GI50 (NCI-H322M; read-out: pGI50 (converted)): > 100 µM
- CC50 (NCI-H322M; [17]): > 100 µM
- TGI (NCI-H322M; read-out: pTGI): > 100 µM
- growth at 0.1 µM (OVCAR-4): 100%
